Measurements taken from patent US9315544B2, “Method of treating eosinophilia by administering an immunomodulating peptide” (National Tsing Hua University, priority 2012, dated 2016).

Tests used:
mouse colon cancer cells = assay: Transwell migration assay, mouse colon cancer cells; assay type: cell-based; details: 5 μM CMP pretreatment 30 min, 18 hours
Method: (§1) FIG. 10 illustrates Tumor migration inhibition by CMP. A549, H460 and mouse colon cancer cells were incubated with CMP at 37° C. for 30 min before adding to the top chamber of transwell membranes in 24-well dishes at a density of 2×10^4 cells/well. Data represented the mean±S.E. of triplicate samples from a representative experiment. The experiment was repeated at least three times with similar results
(§2) Cancer cell inhibition by CMP was performed in a 24-well Transwell chamber consisting of a cell culture insert (6.4 mm diameter, 8-1 μm pore polyethylene tetraphtalate membrane, [Becton Dickinson]) set in each well of a 24-well companion plate (Becton Dickinson). Briefly, 3×10^4 cancer cells were suspended and pretreated with 5 and 12.5 μM CMP for 30 min in a total volume of 200 μL. Cell suspensions were inoculated into the upper chamber of an insert, 5% fetal bovine serum (FBS) in medium as a chemoattractant was added to the plate well in the bottom chamber, and incubated for 18 hours in a humidified incubator at 37° C. with 5% CO2. The non-migratory cells on the upper membrane surface were removed with a cotton swab, and the migratory cells attached to the lower membrane surface were fixed with 4% paraformaldehyde and stained with 0.2% crystal violet. The number of migrated cells was counted in four randomly selected high power fields under microscope. […]

human lung cancer A549 = assay: Transwell migration assay, A549; assay type: cell-based; details: 5 μM CMP pretreatment 30 min, 18 hours
Method: as §1, §2

IL-13 = assay: Cytokine ELISA of lung protein extract (IL-13); assay type: in vivo, BALB/c mouse; details: eIN+mIT, mIT+eIN and eIN+mIT+eIN groups
From the text: FIG. 4 illustrates experimental design. All groups except control group were immunized with mite crude extract allergen on days 1 and 8, then mite crude extract allergen intratracheally on day 15 in all mite treated group, BALB/c mouse were divided into six groups (1) control group (PBS), (2) mites delivered intratracheally (mIT, mite on day 15) alone, (3) CMP intranasal (eIN, CMP on days 1 to 22) alone, (4) preventive-treatment group (eIN+mIT, CMP on days 1 to 14, mite on day 15) (5) therapy-treatment group (mIT+eIN, mite on day 15, CMP on days 15 to 22), and (6) preventive- and therapeutic-treatment group (eIN+mIT+eIN, CMP on days 1 to 22, mite on day 15).
FIG. 9 illustrates inhibitory effect of CMP on lung protein extract. Lung protein extracts from different groups of mouse were assayed for the indicated cytokines. Data represent one of three independent experiments. Levels of CCL-11, IL-5, IL-13 and IL-17A/F levels in lung protein extracts from mouse from treatment groups were measured by Enzyme-linked immunosorbent assay (ELISA). Each result was expressed as the mean±S.D., n=4. **, P<0.01, ***, P<0.001. […]
Levels of cytokines from lung protein extract were measured by ELISA. […] The microplates were read at 450 nm with an ELISA reader (Thermo Labsystems, Waltham, Mass., USA). […]

NYRWRCKNQN (CMP)
decrease of migration activity (mouse colon cancer cells): 60% | decrease of migration activity (human lung cancer A549): 60% | IL-13 in lung protein extract compared with mIT group (IL-13): lower concentrations
